Positions of bridges follow the written chain, without caps; N, C: chain ends. Non-standard residues stand in square brackets, D forms with d. Residues, ends and D or L forms follow the SMILES beside them. Nle = CCCC[C@H](N)C(=O)O
Legend:
[1] = Antagonist activity at human SNAP-tagged GHSR expressed in HEK293T cells assessed as reduction in ghrelin-induced calcium production at 1 uM by measuring ghrelin EC50 after 15 mins by Fluo 4-AM dye-based fluorescence assay (Rvb = 0.34 +/- 0.12 nM)
[2] = Antagonist activity at SNAP-tagged human GHSR expressed in HEK293T cells assessed as reduction in ghrelin-induced inositol phosphate production at 1 uM by measuring ghrelin EC50 after 30 mins by HTRF assay (Rvb = 0.40 +/- 0.05 nM)
[3] = Antagonist activity at human SNAP-tagged GHSR expressed in HEK293T cells assessed as reduction in ghrelin-induced calcium production at 1 uM by measuring ghrelin EC50 after 15 mins by Fluo 4-AM dye-based fluorescence assay (Rvb = 0.41 +/- […])
[4] = Antagonist activity at SNAP-tagged human GHSR expressed in HEK293T cells assessed as reduction in ghrelin-induced inositol phosphate production at 1 uM by measuring ghrelin EC50 after 30 mins by HTRF assay (Rvb = 0.36 +/- 0.01 nM)

EC50 [1] [nM] | EC50 [2] [nM] | EC50 [3] [nM] | EC50 [4] [nM] | Structure (SMILES)
18 | 2.5 |  |  | CCCC[C@H](N)C(=O)N[C@H](C(=O)N1CCC[C@H]1C(=O)N[C@@H](Cc1ccccc1)C(=O)N[C@@H](Cc1c[nH]c2ccccc12)C(=O)N[C@@H](CCCNC(=N)N)C(=O)NCC(=O)N[C@H](C(=O)N[C@@H](CO)C(=O)N[C@@H](CC(C)C)C(=O)N[C@@H](CCCNC(=N)N)C(=O)N1CCC[C@H]1C(=O)N[C@H](C(=O)NCC(=O)O)[C@@H](C)CC)C(C)C)[C@@H](C)O (H-[Nle]TPFWRGVSLRPIG-OH)
 |  | 28 | 17 | CC[C@H](C)[C@@H]1NC(=O)[C@@H]2CSSC[C@@H](C(=O)N[C@@H](CO)C(=O)N[C@@H](CC(C)C)C(=O)N[C@@H](CO)C(=O)N[C@H](C(=O)N[C@@H](C)C(=O)N[C@@H](CCC(N)=O)C(=O)N[C@@H](CCC(=O)O)C(=O)O)C(C)C)NC(=O)[C@H](CCCNC(=N)N)NC(=O)[C@H](CCCNC(=N)N)NC(=O)[C@H](CCCCN)NC(=O)[C@H](CCCNC(=N)N)NC(=O)[C@H](CSSC[C@H](NC(=O)[C@H](CO)NC(=O)[C@H](C)NC(=O)CNC(=O)[C@@H](NC(=O)[C@@H]3CCCN3C(=O)[C@H](CCCNC(=N)N)NC(=O)[C@H](CC(C)C)NC(=O)[C@H](CO)NC(=O)[C@@H](NC(=O)CNC(=O)[C@H](CCCNC(=N)N)NC(=O)[C@H](Cc3c[nH]c4ccccc34)NC(=O)[C@H](Cc3ccccc3)NC(=O)[C@@H]3CCCN3C(=O)[C@@H](NC(=O)[C@@H](N)CCSC)[C@@H](C)O)C(C)C)[C@@H](C)CC)C(=O)N[C@@H](CCCNC(=N)N)C(=O)N[C@@H](CC(=O)O)C(=O)N[C@@H](CC(=O)O)C(=O)N[C@@H](CO)C(=O)N[C@@H](CCC(=O)O)C(=O)N2)NC(=O)[C@H](CC(C)C)NC(=O)[C@H](CCCNC(=N)N)NC(=O)[C@H]([C@@H](C)O)NC1=O (H-MTPFWRGVSLRPIGASCRDDSECITRLCRKRRCSLSVAQE-OH; disulfide 17-28, 23-33)

From BindingDB's records for doi:10.1021/acs.jmedchem.8b01644 (University of Montpellier, 2019)
